Experimental data from ChEMBL document CHEMBL5727501, “Bicyclic compounds and their use as antibacterial agents and β-lactamase inhibitors” (2020).
pIC50: −log10 of the molar value.

Columns and labels:
[1] = (§1) Test for beta-lactamase Inhibitory Activity: he inhibitory activities of present compounds against various enzymes were measured by spectrophotometric assay using […] and using nitrocefin as a substrate [J. Antimicrob. Chemother., 28, pp 775-776 (1991)]. The concentration of inhibitor (IC50) which inhibits by 50% the reaction of hydrolysis of nitrocefin by the enzyme is determined.
[2] = as §1; remark: listed apart in the source

Work on `CC(=O)NNC(=O)[C@@H]1CC[C@@H]2CN1C(=O)N2OS(=O)(=O)O` yielded a pIC50 [1] of 8.10 and a pIC50 [2] of 7.04.
